Test results reported in patent US20240043427A1 (Gilead Sciences, Inc., priority 2020, published 2024).

Columns and labels:
[1] = target: T1, CD73 (Homo sapiens (Human), UniProt P21589); type: biochemical; conditions: 1 mM NaH2PO4 in enzyme buffer, CD73 0.3 nM, AMP 15 uM
[2] = target: T1, CD73; experiment: MDA-MB-231 Cell Based CD73 Activity Assay (DMEM); conditions: MDA-MB-231-GFP cells, DMEM medium with 10% human plasma, 200 uM AMP
Protocol: MDA-MB-231 Cell Based CD73 Activity Assay (DMEM) MDA-MB-231-GFP cells were seeded in 384-well plates (Greiner 781946) at a density of 3000 cells per well in 50 μL of DMEM medium with 10% HP (human plasma). Cells were plated into assay plate with compounds pre-spotted, for an overnight compound treatment. 50 uL of 400 uM AMP (final concentration will be 200 uM) was added using Bio-tek dispenser. Plates were incubated for 100 mins. […] The samples were analyzed using Rapid fire.

T1 sequence (P21589 27-574): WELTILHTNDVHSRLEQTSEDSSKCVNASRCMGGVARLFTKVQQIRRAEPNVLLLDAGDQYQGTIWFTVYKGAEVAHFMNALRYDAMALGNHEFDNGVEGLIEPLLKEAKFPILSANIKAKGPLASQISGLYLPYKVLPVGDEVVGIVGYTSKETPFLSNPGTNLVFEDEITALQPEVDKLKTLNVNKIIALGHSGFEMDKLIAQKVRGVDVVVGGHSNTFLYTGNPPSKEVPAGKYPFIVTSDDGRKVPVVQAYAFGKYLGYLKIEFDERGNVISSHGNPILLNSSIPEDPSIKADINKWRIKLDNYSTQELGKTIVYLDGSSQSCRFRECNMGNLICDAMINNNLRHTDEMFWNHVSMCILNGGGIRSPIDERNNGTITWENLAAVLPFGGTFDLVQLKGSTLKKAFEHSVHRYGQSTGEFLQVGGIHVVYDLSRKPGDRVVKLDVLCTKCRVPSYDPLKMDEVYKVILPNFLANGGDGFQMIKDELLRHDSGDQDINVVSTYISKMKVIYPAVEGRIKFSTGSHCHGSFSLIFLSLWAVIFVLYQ

Row | IC50 [1] | EC50 [2] | SMILES
1 | 2.72 nM | 2.53 nM | O=c1[nH]cc(-c2cc([C@@H]3C[C@H]3c3cc(F)c(F)c(F)c3)c3nccn3n2)c(=O)[nH]1 (racemic) [Example 36]
2 | 0.69 nM | 0.37 nM | O=c1[nH]cc(-c2cc([C@H]3C[C@@H]3c3ccc4cnn(CC(F)F)c4c3)c3nccn3n2)c(=O)[nH]1 (racemic) [Example 123, 5-(8-((1S,2S)-2-(1-(2,2-difluoroethyl)-1H-indazol-6-yl)cyclopropyl)imidazo[1,2-b]pyridazin-6-yl)pyrimidine-2,4(1H,3H)-dione and 5-(8-((1R,2R)-2-(1-(2,2-difluoroethyl)-1H-indazol-6-yl)cyclopropyl)imidazo[1,2-b]pyridazin-6-yl)pyrimidine-2,4(1H,3H)-dione]
3 | 0.95 nM | 0.64 nM | O=c1[nH]cc(-c2cc([C@H]3C[C@@H]3c3ccc4cnc(C(F)(F)F)cc4c3)c3nccn3n2)c(=O)[nH]1 (racemic) [Example 138, 5-(8-((1S,2S)-2-(3-(trifluoromethyl)isoquinolin-6-yl)cyclopropyl)imidazo[1,2-b]pyridazin-6-yl)pyrimidine-2,4(1H,3H)-dione and 5-(8-((1R,2R)-2-(3-(trifluoromethyl)isoquinolin-6-yl)cyclopropyl)imidazo[1,2-b]pyridazin-6-yl)pyrimidine-2,4(1H,3H)-dione]
4 | 0.96 nM | 3.76 nM | O=c1[nH]cc(-c2cc([C@H]3C[C@@H]3c3ccc4nc(C(F)(F)F)ccc4c3)c3nccn3n2)c(=O)[nH]1 (racemic) [Example 142, 5-(8-((1S,2S)-2-(2-(trifluoromethyl)quinolin-6-yl)cyclopropyl)imidazo[1,2-b]pyridazin-6-yl)pyrimidine-2,4(1H,3H)-dione and 5-(8-((1R,2R)-2-(2-(trifluoromethyl)quinolin-6-yl)cyclopropyl)imidazo[1,2-b]pyridazin-6-yl)pyrimidine-2,4(1H,3H)-dione]
5 | 2.5 nM | – | O=C1N(CC(F)(F)F)c2cc([C@H]3C[C@@H]3c3cc(-c4c[nH]c(=O)[nH]c4=O)nn4ccnc34)c(F)cc2C12CC2 (racemic) [Example 748, 5-(8-((1S,2S)-2-(5′-fluoro-2′-oxo-1′-(2,2,2-trifluoroethyl)spiro[cyclopropane-1,3′-indolin]-6′-yl)cyclopropyl)imidazo[1,2-b]pyridazin-6-yl)pyrimidine-2,4(1H,3H)-dione]
6 | 1.01 nM | – | O=C1N(CC(F)(F)F)c2cc([C@H]3C[C@@H]3c3cc(-c4c[nH]c(=O)[nH]c4=O)nn4ccnc34)ccc2C12CC2 (single isomer, unassigned) [Example 391]
7 | 4.95 nM | – | O=c1[nH]cc(-c2cc([C@H]3C[C@@H]3c3cnn(C(F)F)c3)c3ncc(F)n3n2)c(=O)[nH]1 [Example 371, 5-(8-((1S,2S)-2-(1-(difluoromethyl)-1H-pyrazol-4-yl)cyclopropyl)-3-fluoroimidazo[1,2-b]pyridazin-6-yl)pyrimidine-2,4(1H,3H)-dione]
8 | – | 0.08 nM | O=c1[nH]cc(-c2cc([C@H]3C[C@@H]3c3ccc4cnn(CC(F)(F)F)c4c3F)c3ncc(F)n3n2)c(=O)[nH]1 [Example 630, 5-(3-fluoro-8-((1S,2S)-2-(7-fluoro-1-(2,2,2-trifluoroethyl)-1H-indazol-6-yl)cyclopropyl)imidazo[1,2-b]pyridazin-6-yl)pyrimidine-2,4(1H,3H)-dione]
9 | – | 0.39 nM | CC(C)NC(=O)O[C@H]1CN(c2cc(-c3c[nH]c(=O)[nH]c3=O)nc3ccnn23)CC1(F)F [Example 713, (S)-1-(5-(2,4-dioxo-1,2,3,4-tetrahydropyrimidin-5-yl)pyrazolo[1,5-a]pyrimidin-7-yl)-4,4-difluoropyrrolidin-3-yl isopropylcarbamate]
10 | 0.61 nM | – | O=C1N(CC(F)(F)F)c2cc([C@H]3C[C@@H]3c3cc(-c4c[nH]c(=O)[nH]c4=O)nn4c(Cl)cnc34)ccc2C12CC2 [Example 740, 5-(3-chloro-8-((1S,2S)-2-(2′-oxo-1′-(2,2,2-trifluoroethyl)spiro[cyclopropane-1,3′-indolin]-6′-yl)cyclopropyl)imidazo[1,2-b]pyridazin-6-yl)pyrimidine-2,4(1H,3H)-dione]
11 | 0.49 nM | – | O=C1N(CC(F)(F)F)c2cc([C@H]3C[C@@H]3c3cc(-c4c[nH]c(=O)[nH]c4=O)nn4c(Cl)c(Cl)nc34)ccc2C12CC2 [Example 741, 5-(2,3-dichloro-8-((1S,2S)-2-(2′-oxo-1′-(2,2,2-trifluoroethyl)spiro[cyclopropane-1,3′-indolin]-6′-yl)cyclopropyl)imidazo[1,2-b]pyridazin-6-yl)pyrimidine-2,4(1H,3H)-dione]

Further lines, the compound ahead of its results:

Row | SMILES | IC50 [1] | EC50 [2]
12 | CC(C)n1ncc2ccc([C@H]3C[C@@H]3c3cc(-c4c[nH]c(=O)[nH]c4=O)nn4ccnc34)cc21 (racemic) [Example 119, 5-(8-((1S,2S)-2-(1-isopropyl-1H-indazol-6-yl)cyclopropyl)imidazo[1,2-b]pyridazin-6-yl)pyrimidine-2,4(1H,3H)-dione and 5-(8-((1R,2R)-2-(1-isopropyl-1H-indazol-6-yl)cyclopropyl)imidazo[1,2-b]pyridazin-6-yl)pyrimidine-2,4(1H,3H)-dione] | 0.56 nM | 1.09 nM
13 | O=c1[nH]cc(-c2cc([C@H]3C[C@@H]3c3ccc(OC(F)F)nc3)c3ncc(F)n3n2)c(=O)[nH]1 (racemic) [Example 121, 5-(8-((1S,2S)-2-(6-(difluoromethoxy)pyridin-3-yl)cyclopropyl)-3-fluoroimidazo[1,2-b]pyridazin-6-yl)pyrimidine-2,4(1H,3H)-dione and 5-(8-((1R,2R)-2-(6-(difluoromethoxy)pyridin-3-yl)cyclopropyl)-3-fluoroimidazo[1,2-b]pyridazin-6-yl)pyrimidine-2,4(1H,3H)-dione] | 1.08 nM | 19.7 nM
14 | O=c1[nH]cc(-c2cc([C@H]3C[C@@H]3c3ccc(OC(F)F)cn3)c3nccn3n2)c(=O)[nH]1 (racemic) [Example 136, 5-(8-((1S,2S)-2-(5-(difluoromethoxy)pyridin-2-yl)cyclopropyl)imidazo[1,2-b]pyridazin-6-yl)pyrimidine-2,4(1H,3H)-dione and 5-(8-((1R,2R)-2-(5-(difluoromethoxy)pyridin-2-yl)cyclopropyl)imidazo[1,2-b]pyridazin-6-yl)pyrimidine-2,4(1H,3H)-dione] | 3.11 nM | 6.37 nM
15 | O=c1[nH]cc(-c2cc([C@H]3C[C@@H]3c3cc(C(F)(F)F)c4ncccc4c3)c3nccn3n2)c(=O)[nH]1 (racemic) [Example 141, 5-(8-((1S,2S)-2-(8-(trifluoromethyl)quinolin-6-yl)cyclopropyl)imidazo[1,2-b]pyridazin-6-yl)pyrimidine-2,4(1H,3H)-dione and 5-(8-((1R,2R)-2-(8-(trifluoromethyl)quinolin-6-yl)cyclopropyl)imidazo[1,2-b]pyridazin-6-yl)pyrimidine-2,4(1H,3H)-dione] | 2.1 nM | 24.8 nM
16 | O=C1N(CC2(F)CC2)c2cc([C@H]3C[C@@H]3c3cc(-c4c[nH]c(=O)[nH]c4=O)nn4c(F)cnc34)ccc2C12CC2 (racemic) [Example 735, 5-(3-fluoro-8-((1S,2S)-2-(1′-((1-fluorocyclopropyl)methyl)-2′-oxospiro[cyclopropane-1,3′-indolin]-6′-yl)cyclopropyl)imidazo[1,2-b]pyridazin-6-yl)pyrimidine-2,4(1H,3H)-dione] | 2.94 nM | –
17 | O=c1[nH]cc(-c2cc(N3CCC4(C3)CC4(F)F)c3nccn3n2)c(=O)[nH]1 (stereo not shown) [Example 192] | – | 20.9 nM
18 | O=C(c1ccc([C@H]2C[C@@H]2c2cc(-c3c[nH]c(=O)[nH]c3=O)nn3c(F)cnc23)cc1)N1CC(F)(F)C1 [Example 313, 5-(8-((1S,2S)-2-(4-(3,3-difluoroazetidine-1-carbonyl)phenyl)cyclopropyl)-3-fluoroimidazo[1,2-b]pyridazin-6-yl)pyrimidine-2,4(1H,3H)-dione] | 2.35 nM | –
19 | O=c1[nH]cc(-c2cc([C@H]3C[C@@H]3c3ccc(OC(F)(F)F)cn3)c3nccn3n2)c(=O)[nH]1 [Example 373, 5-(8-((1S,2S)-2-(5-(trifluoromethoxy)pyridin-2-yl)cyclopropyl)imidazo[1,2-b]pyridazin-6-yl)pyrimidine-2,4(1H,3H)-dione] | 2.56 nM | –
20 | O=c1[nH]cc(-c2cc(N3CC4CC(F)(C4)C3)c3nccn3n2)c(=O)[nH]1 [Example 579, 5-(8-(1-fluoro-3-azabicyclo[3.1.1]heptan-3-yl)imidazo[1,2-b]pyridazin-6-yl)pyrimidine-2,4(1H,3H)-dione] | – | 111 nM
21 | O=c1[nH]cc(-c2cc([C@H]3C[C@@H]3c3cc4c(cn3)cnn4CC(F)(F)F)c3ncc(F)n3n2)c(=O)[nH]1 [Example 611, 5-(3-fluoro-8-((1S,2S)-2-(1-(2,2,2-trifluoroethyl)-1H-pyrazolo[4,3-c]pyridin-6-yl)cyclopropyl)imidazo[1,2-b]pyridazin-6-yl)pyrimidine-2,4(1H,3H)-dione] | 0.4 nM | –
22 | O=c1[nH]cc(-c2cc([C@H]3C[C@@H]3c3cc4c(cnn4CC(F)(F)F)cc3F)c3ncc(F)n3n2)c(=O)[nH]1 [Example 613, 5-(3-fluoro-8-((1S,2S)-2-(5-fluoro-1-(2,2,2-trifluoroethyl)-1H-indazol-6-yl)cyclopropyl)imidazo[1,2-b]pyridazin-6-yl)pyrimidine-2,4(1H,3H)-dione] | 0.58 nM | –
23 | CC(C)(C)COc1cc(-c2c[nH]c(=O)[nH]c2=O)nn2ccnc12 [Example 679, 5-(8-(neopentyloxy)imidazo[1,2-b]pyridazin-6-yl)pyrimidine-2,4(1H,3H)-dione] | – | 124 nM
